Measured values reported in patent US10487068B2, “Pyridazine derivatives as RORc modulators” (Genentech, Inc., priority 2015, dated 2019).

Target: T1, RORc ligand binding domain (Homo sapiens, UniProt P51449)
T1 sequence (P51449 269-508 limits assumed): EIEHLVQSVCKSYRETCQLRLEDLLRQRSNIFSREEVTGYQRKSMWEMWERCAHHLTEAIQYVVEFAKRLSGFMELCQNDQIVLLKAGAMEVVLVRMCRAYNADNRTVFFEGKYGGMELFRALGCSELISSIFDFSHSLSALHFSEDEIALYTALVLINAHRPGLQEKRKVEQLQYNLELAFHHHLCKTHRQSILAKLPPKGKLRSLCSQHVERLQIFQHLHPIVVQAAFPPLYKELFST
Assay: In Vitro RORc Ligand Binding Assay
Conditions: RORc IC50, radioligand 25-[3H]hydroxycholesterol 6 nM; 0.6 ug/mL RORc receptor; 3 h at 25° C.

IC50 [µM]	Structure (SMILES)
0.0068	CC[C@@H](O)c1n[nH]c(-c2cncc([C@@]34CC[C@@H](c5cc(-c6c(F)cccc6F)nnc53)C4(C)C)n2)n1 [Example 278, (R)-1-(5-(6-((5R,8S)-3-(2,6-difluorophenyl)-9,9-dimethyl-5,6,7,8-tetrahydro-5,8-methanocinnolin-8-yl)pyrazin-2-yl)-1H-1,2,4-triazol-3-yl)propan-1-ol]
0.0126	C[C@@H](O)Cc1n[nH]c(-c2cncc([C@@]34CC[C@@H](c5cc(-c6c(F)cccc6F)nnc53)C4(C)C)n2)n1 [Example 279, (R)-1-(5-(6-((5R,8S)-3-(2,6-difluorophenyl)-9,9-dimethyl-5,6,7,8-tetrahydro-5,8-methanocinnolin-8-yl)pyrazin-2-yl)-1H-1,2,4-triazol-3-yl)propan-2-ol]
0.0136	CC(C)(O)c1c[nH]c(-c2cncc([C@@]34CC[C@@H](c5cc(-c6c(F)cccc6F)nnc53)C4(C)C)n2)n1 [Example 280, 2-(2-(6-((5R,8S)-3-(2,6-difluorophenyl)-9,9-dimethyl-5,6,7,8-tetrahydro-5,8-methanocinnolin-8-yl)pyrazin-2-yl)-1H-imidazol-4-yl)propan-2-ol]
0.0149	CC(C)(O)c1coc(-c2ccnc([C@@]34CC[C@@H](c5cc(-c6c(F)cccc6F)nnc53)C4(C)C)n2)n1 [Example 281, 2-(2-(2-((5R,8R)-3-(2,6-difluorophenyl)-9,9-dimethyl-5,6,7,8-tetrahydro-5,8-methanocinnolin-8-yl)pyrimidin-4-yl)oxazol-4-yl)propan-2-ol]
0.0049	COC(=O)c1ccn(-c2nccc([C@@]34CC[C@@H](c5cc(-c6c(F)cccc6F)nnc53)C4(C)C)n2)n1 [Example 282]
0.0116	CC1(C)[C@H]2CC[C@]1(c1nc(-c3nc(C(N)=O)no3)ncc1F)c1nnc(-c3c(F)cccc3F)cc12 [Example 283]
0.0276	CC1(C)[C@H]2CC[C@]1(c1nccc(-n3ccc(CO)n3)n1)c1nnc(-c3c(F)cccc3F)cc12 [Example 284, (1-(2-((5R,8R)-3-(2,6-difluorophenyl)-9,9-dimethyl-5,6,7,8-tetrahydro-5,8-methanocinnolin-8-yl)pyrimidin-4-yl)-1H-pyrazol-3-yl)methanol]
0.0041	CC1(C)[C@H]2CC[C@]1(c1cncc(-c3nc(C4(O)CC4)n[nH]3)n1)c1nnc(-c3c(F)cccc3F)cc12 [Example 285, 1-(5-(6-((5R,8S)-3-(2,6-difluorophenyl)-9,9-dimethyl-5,6,7,8-tetrahydro-5,8-methanocinnolin-8-yl)pyrazin-2-yl)-1H-1,2,4-triazol-3-yl)cyclopropanol]
0.0106	CC1(C)[C@H]2CC[C@]1(c1cncc(-c3nc([C@@H](O)CO)n[nH]3)n1)c1nnc(-c3c(F)cccc3F)cc12 [Example 286, (R)-1-(5-(6-((5R,8S)-3-(2,6-difluorophenyl)-9,9-dimethyl-5,6,7,8-tetrahydro-5,8-methanocinnolin-8-yl)pyrazin-2-yl)-1H-1,2,4-triazol-3-yl)ethane-1,2-diol]
0.0121	CC1(C)[C@H]2CC[C@]1(c1nc(-n3ccc(CO)n3)ncc1F)c1nnc(-c3c(F)cccc3F)cc12 [Example 287]
0.0203	CC1(C)[C@H]2CC[C@]1(c1nc(-c3nc(CO)no3)ncc1F)c1nnc(-c3c(F)cccc3F)cc12 [Example 288, (5-(4-((5R,8S)-3-(2,6-difluorophenyl)-9,9-dimethyl-5,6,7,8-tetrahydro-5,8-methanocinnolin-8-yl)-5-fluoropyrimidin-2-yl)-1,2,4-oxadiazol-32-(1-(4-((5R,8S)-3-(2,6-difluorophenyl)-9,9-dimethyl-5,6,7,8-tetrahydro-5,8-methanocinnolin-8-yl)pyrimidin-2-yl)-1H-pyrazol-3-yl)propan-2-ol-yl)methanol]
0.0151	CC1(C)[C@H]2CC[C@]1(c1ccnc(-c3ccc(=O)[nH]c3)n1)c1nnc(-c3c(F)cccc3F)cc12 [Example 289]
0.0335	CC(C)(O)c1ccn(-c2nccc([C@@]34CC[C@@H](c5cc(-c6c(F)cccc6F)nnc53)C4(C)C)n2)n1 [Example 290]
0.0343	CC1(C)[C@H]2CC[C@]1(c1ccnc(-n3ccc(C(N)=O)n3)n1)c1nnc(-c3c(F)cccc3F)cc12 [Example 291]
0.0139	CC(C)(O)c1nc(-c2ncc(Cl)c([C@@]34CC[C@@H](c5cc(-c6c(F)cccc6F)nnc53)C4(C)C)n2)no1 [Example 292]
0.028	CC1(C)[C@H]2CC[C@]1(c1cncc(-c3nc(C[C@H](O)CO)n[nH]3)n1)c1nnc(-c3c(F)cccc3F)cc12 [Example 293, (S)-3-(5-(6-((5R,8S)-3-(2,6-difluorophenyl)-9,9-dimethyl-5,6,7,8-tetrahydro-5,8-methanocinnolin-8-yl)pyrazin-2-yl)-1H-1,2,4-triazol-3-yl)propane-1,2-diol]
0.0233	CC1(C)[C@H]2CC[C@]1(c1cncc(-c3nc(CS(C)(=O)=O)n[nH]3)n1)c1nnc(-c3c(F)cccc3F)cc12 [Example 294]
0.0152	CC[C@H](O)c1n[nH]c(-c2cncc([C@@]34CC[C@@H](c5cc(-c6c(F)cccc6F)nnc53)C4(C)C)n2)n1 [Example 295, (S)-1-(5-(6-((5R,8S)-3-(2,6-difluorophenyl)-9,9-dimethyl-5,6,7,8-tetrahydro-5,8-methanocinnolin-8-yl)pyrazin-2-yl)-1H-1,2,4-triazol-3-yl)propan-1-ol]
0.0209	CC1(C)[C@H]2CC[C@]1(c1cncc(C3=NNC(=O)CN3)n1)c1nnc(-c3c(F)cccc3F)cc12 [Example 296, 3-(6-((5R,8S)-3-(2,6-difluorophenyl)-9,9-dimethyl-5,6,7,8-tetrahydro-5,8-methanocinnolin-8-yl)pyrazin-2-yl)-4,5-dihydro-1,2,4-triazin-6(1H)-one]
0.0199	C[C@H](O)Cc1n[nH]c(-c2cncc([C@@]34CC[C@@H](c5cc(-c6c(F)cccc6F)nnc53)C4(C)C)n2)n1 [Example 297, (S)-1-(5-(6-((5R,8S)-3-(2,6-difluorophenyl)-9,9-dimethyl-5,6,7,8-tetrahydro-5,8-methanocinnolin-8-yl)pyrazin-2-yl)-1H-1,2,4-triazol-3-yl)propan-2-ol]
0.0057	Cc1n[nH]cc1-c1nccc([C@@]23CC[C@@H](c4cc(-c5c(F)cccc5F)nnc42)C3(C)C)n1 [Example 298]
0.0241	CC1(C)[C@H]2CC[C@]1(c1ccnc(N3CC(C(N)=O)C3)n1)c1nnc(-c3c(F)cccc3F)cc12 [Example 299]
0.0122	CC1(C)[C@H]2CC[C@]1(c1ccnc(-n3ccc(CC(N)=O)n3)n1)c1nnc(-c3c(F)cccc3F)cc12 [Example 300]
0.0136	CC(C)(O)c1nc(-c2cncc([C@@]34CC[C@@H](c5cc(-c6c(F)cccc6F)nnc53)C4(C)C)n2)c[nH]1 [Example 301, 2-(4-(6-((5R,8S)-3-(2,6-difluorophenyl)-9,9-dimethyl-5,6,7,8-tetrahydro-5,8-methanocinnolin-8-yl)pyrazin-2-yl)-1H-imidazol-2-yl)propan-2-ol]
0.0099	CC1(C)[C@H]2CC[C@]1(c1nccc(-c3ccn[nH]3)n1)c1nnc(-c3c(F)cccc3F)cc12 [Example 302, (5R,8R)-8-(4-(1H-pyrazol-5-yl)pyrimidin-2-yl)-3-(2,6-difluorophenyl)-9,9-dimethyl-5,6,7,8-tetrahydro-5,8-methanocinnoline]
0.015	CC1(C)[C@H]2CC[C@]1(c1ccnc(-n3ccc(=O)[nH]3)n1)c1nnc(-c3c(F)cccc3F)cc12 [Example 303]
